# In article PMC12034907 (Journal of Clinical Pharmacology, 2024):
# Entries after “also recorded” stand apart in the source; their conditions may differ. Read-outs that look alike come from different tables or passages of the source. Marks after values point to notes of the source that are not given here.
# Assays:
# CYP3A = conditions: cited from earlier work; for midazolam exposure relative to baseline exposure: studies with CYP3A inducers; for effect of CYP3A inhibitor on midazolam exposure: interaction studies
# [1] = Clinical DDI study: safety and tolerability; format: in vivo, human; conditions: for AEs leading to death / AEs leading to treatment discontinuation / Related AEs / Serious AEs / Severity of AE: Mild / Severity of AE: Moderate / Severity of AE: Severe / AEs: by period, safety population; for AEs: participants who experienced AEs
# CYP2C19 = conditions: liver metabolism; cited from earlier work
# CYP3A4 [2] = conditions: liver metabolism; cited from earlier work
# CYP2C9 = conditions: liver metabolism; cited from earlier work
# [3] = cited from earlier work
# CYP3A4 [4] = tested on: CYP3A4
# [5] = midazolam 5 mg + mavacamten 15 mg on day 17, geometric mean (geometric CV%)
# [6] = midazolam 5 mg oral alone (day 1), geometric mean (geometric CV%)
# [7] = with mavacamten vs midazolam alone
structure (smiles),measurement,setting,value
NC(=O)N1c2ccccc2C=Cc2ccccc21 [carbamazepine],midazolam exposure relative to baseline exposure,CYP3A,below 10%
CC(C)n1c(=O)cc(N[C@@H](C)c2ccccc2)[nH]c1=O [Mavacamten],AEs leading to death,[1],0 n (%)
same,AEs leading to treatment discontinuation,[1],0 n (%)
same,Related AEs,[1],5 (38.5) n (%)
same,Serious AEs,[1],0 n (%)
same,Severity of AE: Mild,[1],9 (69.2) n (%)
same,Severity of AE: Moderate,[1],1 (7.7) n (%)
same,Severity of AE: Severe,[1],0 n (%)
same,tolerability,[1]; healthy participants,well tolerated
same,AEs,[1],9 (69.2) n (%)
same,share of metabolism by CYP2C19,CYP2C19,74%
same,share of metabolism by CYP3A4,CYP3A4 [2],18%
same,share of metabolism by CYP2C9,CYP2C9,8%
same,estimated oral bioavailability,[3],at least 85%
same,median time to maximum plasma concentration (tmax),[3],1 to 2 h
same,effect of mavacamten on midazolam exposure (CYP3A4 induction),"CYP3A4 [4]; clinically relevant mavacamten exposures, healthy participants",negligible effect; also recorded: did not meet the criteria for induction
C[C@@H](c1ncncc1F)[C@](O)(Cn1cncn1)c1ccc(F)cc1F [voriconazole],effect of CYP3A inhibitor on midazolam exposure,CYP3A,increases in midazolam exposure
"OCc1ncc2n1-c1ccc(Cl)cc1C(c1ccccc1F)=NC2 [1′‐Hydroxymidazolam, 1′‐hydroxymidazolam]","tmax, median (range)","midazolam 5 mg + mavacamten 15 mg on day 17, n = 12",0.51 (0.50‐1.0) h
same,AUC0-inf,[5],47.76 (36.3) (n = 7) ^b ng∙h/mL
same,t1/2,[5],5.22 (29.9) (n = 7) ^b h
same,"tmax, median (range)","midazolam 5 mg oral alone (day 1), n = 13",1.00 (0.50‐2.08) h
same,AUC0-last,"midazolam 5 mg oral alone (day 1), n = 13, geometric mean (geometric CV%)",38.63 (22.2) ng∙h/mL
same,AUC0-inf,[6],41.47 (24.1) (n = 10) ^b ng∙h/mL
same,t1/2,[6],6.48 (24.7) (n = 10) ^b h
same,increase in AUC0-inf,CYP3A4 [4]; [7],20%
same,increase in AUC0-last,CYP3A4 [4]; [7],11%
same,increase in Cmax,CYP3A4 [4]; [7],28%
CC(=O)N1CCN(c2ccc(OCC3COC(Cn4ccnc4)(c4ccc(Cl)cc4Cl)O3)cc2)CC1 (centres unmarked) [ketoconazole],effect of CYP3A inhibitor on midazolam exposure,CYP3A,increases in midazolam exposure
Cc1ncc2n1-c1ccc(Cl)cc1C(c1ccccc1F)=NC2 [Midazolam],AEs leading to death,[1],0 n (%)
same,AEs leading to treatment discontinuation,[1],0 n (%)
same,Related AEs,[1],2 (15.4) n (%)
same,Serious AEs,[1],0 n (%)
same,Severity of AE: Mild,[1],3 (23.1) n (%)
same,Severity of AE: Moderate,[1],0 n (%)
same,Severity of AE: Severe,[1],0 n (%)
same,AEs,[1],3 (23.1) n (%)
same,Tmax,"human, plasma, oral, tmax, midazolam alone or with mavacamten",< 1 h
same,AUC(0-t),"human, plasma, po, 5 mg",51 ng·h/mL
same,t1/2,[5],4.84 (34.4) (n = 9) ^a h
same,t1/2,[6],5.28 (39.3) h
same,decrease in AUC0-inf,CYP3A4 [4]; [7],13%
same,decrease in AUC0-last,CYP3A4 [4]; [7],24%
same,decrease in Cmax,CYP3A4 [4]; [7],7%
O=C1NC(=O)C(c2ccccc2)(c2ccccc2)N1 [phenytoin],midazolam exposure relative to baseline exposure,CYP3A,below 10%
